Experiment: molar heat capacity at constant pressure
Conditions: 101.33 kPa, Metastable crystal

O=P([O-])([O-])[O-].[Tb+3] [terbium orthophosphate]
Conditions | molar heat capacity at constant pressure [J/K/mol]
291.41 K, Vacuum adiabatic calorimetry | 108
294.82 K, Vacuum adiabatic calorimetry | 108.6
298.47 K, Vacuum adiabatic calorimetry | 109.3
300 K, Vacuum adiabatic calorimetry | 109.8
302.47 K, Vacuum adiabatic calorimetry | 110
307.42 K, Vacuum adiabatic calorimetry | 110.9
310 K, Vacuum adiabatic calorimetry | 111.5
313.46 K, Vacuum adiabatic calorimetry | 112.2
320 K, Vacuum adiabatic calorimetry | 113.1
320.4 K, Vacuum adiabatic calorimetry | 113.3
325 K, Vacuum adiabatic calorimetry | 113.9
327.27 K, Vacuum adiabatic calorimetry | 114.3
334.07 K, Vacuum adiabatic calorimetry | 115.4
340 K, Small sample (50 mg) DSC | 116.3
340.79 K, Vacuum adiabatic calorimetry | 116.6
347.44 K, Vacuum adiabatic calorimetry | 117.5
360 K, Small sample (50 mg) DSC | 119
380 K, Small sample (50 mg) DSC | 121.5
400 K, Small sample (50 mg) DSC | 123.7
420 K, Small sample (50 mg) DSC | 125.6
433.9 K, Small sample (50 mg) DSC | 128.2
438.9 K, Small sample (50 mg) DSC | 128.4
440 K, Small sample (50 mg) DSC | 127.4
443.9 K, Small sample (50 mg) DSC | 128.3
448.9 K, Small sample (50 mg) DSC | 128.3
453.9 K, Small sample (50 mg) DSC | 128.3
458.9 K, Small sample (50 mg) DSC | 128.5
460 K, Small sample (50 mg) DSC | 129
463.9 K, Small sample (50 mg) DSC | 128.6
468.9 K, Small sample (50 mg) DSC | 129
473.9 K, Small sample (50 mg) DSC | 129.1
478.9 K, Small sample (50 mg) DSC | 129.3
480 K, Small sample (50 mg) DSC | 130.4
483.9 K, Small sample (50 mg) DSC | 129.7
488.9 K, Small sample (50 mg) DSC | 130.2
493.9 K, Small sample (50 mg) DSC | 130.7
498.9 K, Small sample (50 mg) DSC | 131.4
500 K, Small sample (50 mg) DSC | 131.7
503.9 K, Small sample (50 mg) DSC | 131.7
508.9 K, Small sample (50 mg) DSC | 132.1
513.9 K, Small sample (50 mg) DSC | 132.7
518.9 K, Small sample (50 mg) DSC | 132.9
520 K, Small sample (50 mg) DSC | 132.9
523.9 K, Small sample (50 mg) DSC | 133.1
528.9 K, Small sample (50 mg) DSC | 133.7
533.9 K, Small sample (50 mg) DSC | 134.6
538.9 K, Small sample (50 mg) DSC | 135.3
540 K, Small sample (50 mg) DSC | 134
543.9 K, Small sample (50 mg) DSC | 135.7
548.9 K, Small sample (50 mg) DSC | 136.1
553.9 K, Small sample (50 mg) DSC | 136.5
558.9 K, Small sample (50 mg) DSC | 136.9
560 K, Small sample (50 mg) DSC | 135
563.9 K, Small sample (50 mg) DSC | 137.2
568.9 K, Small sample (50 mg) DSC | 137.5
573.9 K, Small sample (50 mg) DSC | 138
578.9 K, Small sample (50 mg) DSC | 138.3
580 K, Small sample (50 mg) DSC | 135.8
583.9 K, Small sample (50 mg) DSC | 138.2
588.9 K, Small sample (50 mg) DSC | 138.1
593.9 K, Small sample (50 mg) DSC | 138.4
598.9 K, Small sample (50 mg) DSC | 138.7
600 K, Small sample (50 mg) DSC | 136.7
603.9 K, Small sample (50 mg) DSC | 138.6
608.9 K, Small sample (50 mg) DSC | 138.7
613.9 K, Small sample (50 mg) DSC | 138.4
618.9 K, Small sample (50 mg) DSC | 138.5
620 K, Small sample (50 mg) DSC | 137.4
623.9 K, Small sample (50 mg) DSC | 138.6
628.9 K, Small sample (50 mg) DSC | 138.4
633.9 K, Small sample (50 mg) DSC | 136.7
638.9 K, Small sample (50 mg) DSC | 135.8
640 K, Small sample (50 mg) DSC | 138.1
643.9 K, Small sample (50 mg) DSC | 135.7
648.9 K, Small sample (50 mg) DSC | 135.9
653.9 K, Small sample (50 mg) DSC | 136.3
658.9 K, Small sample (50 mg) DSC | 136.4
660 K, Small sample (50 mg) DSC | 138.7
663.9 K, Small sample (50 mg) DSC | 136.8
668.9 K, Small sample (50 mg) DSC | 136.7
673.9 K, Small sample (50 mg) DSC | 136.7
678.9 K, Small sample (50 mg) DSC | 136.8
680 K, Small sample (50 mg) DSC | 139.3
